Key:
Conditions in all cases: 2.5E−05M
B2 (h) = B2 (h) (Homo sapiens, UniProt P07550); assay: Abuse liability binding screen, B2 (h) (agonist radioligand)
Description: (§1) […]. The abuse liability screen included 44 targets (receptors, transporters, on gated-channel systems) related to the dopamine, norepinephrine, serotonin, gamma-aminobutyric acid (GABA), acetylcholine, N-methyl-D-aspartate (NMDA) cannabinoid and opioid neurotransmitter systems as recommended in FDA Draft guidance on Assessment of Abuse Potential of Drugs, January 2010.
(§2) Compound binding was calculated as a % inhibition of the binding of a radioactively labeled ligand specific for each target.
(§3) Results showing an inhibition or stimulation higher than 50% are considered to represent significant effects of the test compounds.

[1] = target: Norepinephrine transporter (h) (Homo sapiens, UniProt P23975); assay: Abuse liability binding screen, Norepinephrine transporter (h) (antagonist radioligand)
Chain of Norepinephrine transporter (h) (P23975 whole entry): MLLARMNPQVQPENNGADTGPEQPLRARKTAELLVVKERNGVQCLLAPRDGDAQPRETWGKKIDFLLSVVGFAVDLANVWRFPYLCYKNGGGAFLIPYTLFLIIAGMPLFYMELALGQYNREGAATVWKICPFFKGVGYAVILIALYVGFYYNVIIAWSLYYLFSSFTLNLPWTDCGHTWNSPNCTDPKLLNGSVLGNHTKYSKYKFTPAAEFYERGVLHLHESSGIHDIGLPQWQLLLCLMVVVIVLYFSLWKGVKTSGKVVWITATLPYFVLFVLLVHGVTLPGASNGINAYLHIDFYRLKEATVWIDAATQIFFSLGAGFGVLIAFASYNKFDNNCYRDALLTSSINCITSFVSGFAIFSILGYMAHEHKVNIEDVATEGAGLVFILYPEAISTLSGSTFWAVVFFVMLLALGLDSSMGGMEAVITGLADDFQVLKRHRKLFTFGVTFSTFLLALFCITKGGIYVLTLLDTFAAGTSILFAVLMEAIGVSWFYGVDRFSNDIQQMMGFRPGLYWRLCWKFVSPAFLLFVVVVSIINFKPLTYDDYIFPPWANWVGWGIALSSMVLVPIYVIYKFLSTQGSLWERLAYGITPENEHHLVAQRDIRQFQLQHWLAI
Description: as §1, §2, §3

M2 (h) = target: T1, M2 (h) (Homo sapiens, UniProt P08172); assay: Abuse liability binding screen, M2 (h) (antagonist radioligand)
T1 sequence (P08172 1-466): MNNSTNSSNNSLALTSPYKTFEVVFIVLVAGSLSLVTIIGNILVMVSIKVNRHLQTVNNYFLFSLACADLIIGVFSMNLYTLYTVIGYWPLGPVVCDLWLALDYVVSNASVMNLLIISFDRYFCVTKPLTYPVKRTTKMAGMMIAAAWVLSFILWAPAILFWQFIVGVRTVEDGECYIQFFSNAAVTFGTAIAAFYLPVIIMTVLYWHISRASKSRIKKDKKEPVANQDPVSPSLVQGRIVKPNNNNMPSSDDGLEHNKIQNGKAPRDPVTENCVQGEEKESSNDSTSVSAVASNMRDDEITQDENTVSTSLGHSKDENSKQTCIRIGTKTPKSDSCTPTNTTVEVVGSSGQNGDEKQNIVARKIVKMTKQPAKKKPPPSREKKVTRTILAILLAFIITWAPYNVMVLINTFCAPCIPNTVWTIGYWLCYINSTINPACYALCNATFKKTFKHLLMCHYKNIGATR
Description: as §1, §2, §3

5-HT1A (h) = target: T2, 5-HT1A (h) (Homo sapiens, UniProt P08908); assay: Abuse liability binding screen, 5-HT1A (h) (agonist radioligand)
T2 sequence (P08908 1-422): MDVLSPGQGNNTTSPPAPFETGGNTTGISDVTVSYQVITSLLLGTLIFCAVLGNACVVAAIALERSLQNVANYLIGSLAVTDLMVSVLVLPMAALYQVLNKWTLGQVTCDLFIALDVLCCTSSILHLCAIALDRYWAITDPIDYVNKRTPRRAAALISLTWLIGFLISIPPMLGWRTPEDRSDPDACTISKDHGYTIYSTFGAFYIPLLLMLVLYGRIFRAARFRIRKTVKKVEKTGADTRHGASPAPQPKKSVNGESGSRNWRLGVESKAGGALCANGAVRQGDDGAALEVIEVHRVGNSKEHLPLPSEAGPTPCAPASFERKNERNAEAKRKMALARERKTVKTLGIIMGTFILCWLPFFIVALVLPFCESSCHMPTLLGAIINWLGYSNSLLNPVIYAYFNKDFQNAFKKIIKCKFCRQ
Description: as §2

M4 (h) = target: T3, M4 (h) (Homo sapiens, UniProt P08173); assay: Abuse liability binding screen, M4 (h) (antagonist radioligand)
T3 sequence (P08173 1-479): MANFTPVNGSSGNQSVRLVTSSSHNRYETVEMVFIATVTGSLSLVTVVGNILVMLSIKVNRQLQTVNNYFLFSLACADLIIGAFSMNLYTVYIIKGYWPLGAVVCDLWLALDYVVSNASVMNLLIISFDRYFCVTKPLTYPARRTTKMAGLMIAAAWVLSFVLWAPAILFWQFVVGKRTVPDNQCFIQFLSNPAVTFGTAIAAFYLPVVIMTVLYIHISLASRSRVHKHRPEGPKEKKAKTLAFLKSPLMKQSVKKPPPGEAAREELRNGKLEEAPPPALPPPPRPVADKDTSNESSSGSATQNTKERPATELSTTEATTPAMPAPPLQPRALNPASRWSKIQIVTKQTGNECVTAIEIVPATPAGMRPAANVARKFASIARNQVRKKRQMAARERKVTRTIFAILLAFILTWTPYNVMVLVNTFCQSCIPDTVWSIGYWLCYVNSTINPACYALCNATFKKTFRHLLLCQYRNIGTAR
Description: as §1, §2, §3

Ca^2+ channel (N) = Ca^2+ channel (N) (Rattus norvegicus, UniProt Q02294); assay: Abuse liability binding screen, Ca2+ channel (N) (antagonist radioligand)
Chain of Ca^2+ channel (N) (Q02294 whole entry): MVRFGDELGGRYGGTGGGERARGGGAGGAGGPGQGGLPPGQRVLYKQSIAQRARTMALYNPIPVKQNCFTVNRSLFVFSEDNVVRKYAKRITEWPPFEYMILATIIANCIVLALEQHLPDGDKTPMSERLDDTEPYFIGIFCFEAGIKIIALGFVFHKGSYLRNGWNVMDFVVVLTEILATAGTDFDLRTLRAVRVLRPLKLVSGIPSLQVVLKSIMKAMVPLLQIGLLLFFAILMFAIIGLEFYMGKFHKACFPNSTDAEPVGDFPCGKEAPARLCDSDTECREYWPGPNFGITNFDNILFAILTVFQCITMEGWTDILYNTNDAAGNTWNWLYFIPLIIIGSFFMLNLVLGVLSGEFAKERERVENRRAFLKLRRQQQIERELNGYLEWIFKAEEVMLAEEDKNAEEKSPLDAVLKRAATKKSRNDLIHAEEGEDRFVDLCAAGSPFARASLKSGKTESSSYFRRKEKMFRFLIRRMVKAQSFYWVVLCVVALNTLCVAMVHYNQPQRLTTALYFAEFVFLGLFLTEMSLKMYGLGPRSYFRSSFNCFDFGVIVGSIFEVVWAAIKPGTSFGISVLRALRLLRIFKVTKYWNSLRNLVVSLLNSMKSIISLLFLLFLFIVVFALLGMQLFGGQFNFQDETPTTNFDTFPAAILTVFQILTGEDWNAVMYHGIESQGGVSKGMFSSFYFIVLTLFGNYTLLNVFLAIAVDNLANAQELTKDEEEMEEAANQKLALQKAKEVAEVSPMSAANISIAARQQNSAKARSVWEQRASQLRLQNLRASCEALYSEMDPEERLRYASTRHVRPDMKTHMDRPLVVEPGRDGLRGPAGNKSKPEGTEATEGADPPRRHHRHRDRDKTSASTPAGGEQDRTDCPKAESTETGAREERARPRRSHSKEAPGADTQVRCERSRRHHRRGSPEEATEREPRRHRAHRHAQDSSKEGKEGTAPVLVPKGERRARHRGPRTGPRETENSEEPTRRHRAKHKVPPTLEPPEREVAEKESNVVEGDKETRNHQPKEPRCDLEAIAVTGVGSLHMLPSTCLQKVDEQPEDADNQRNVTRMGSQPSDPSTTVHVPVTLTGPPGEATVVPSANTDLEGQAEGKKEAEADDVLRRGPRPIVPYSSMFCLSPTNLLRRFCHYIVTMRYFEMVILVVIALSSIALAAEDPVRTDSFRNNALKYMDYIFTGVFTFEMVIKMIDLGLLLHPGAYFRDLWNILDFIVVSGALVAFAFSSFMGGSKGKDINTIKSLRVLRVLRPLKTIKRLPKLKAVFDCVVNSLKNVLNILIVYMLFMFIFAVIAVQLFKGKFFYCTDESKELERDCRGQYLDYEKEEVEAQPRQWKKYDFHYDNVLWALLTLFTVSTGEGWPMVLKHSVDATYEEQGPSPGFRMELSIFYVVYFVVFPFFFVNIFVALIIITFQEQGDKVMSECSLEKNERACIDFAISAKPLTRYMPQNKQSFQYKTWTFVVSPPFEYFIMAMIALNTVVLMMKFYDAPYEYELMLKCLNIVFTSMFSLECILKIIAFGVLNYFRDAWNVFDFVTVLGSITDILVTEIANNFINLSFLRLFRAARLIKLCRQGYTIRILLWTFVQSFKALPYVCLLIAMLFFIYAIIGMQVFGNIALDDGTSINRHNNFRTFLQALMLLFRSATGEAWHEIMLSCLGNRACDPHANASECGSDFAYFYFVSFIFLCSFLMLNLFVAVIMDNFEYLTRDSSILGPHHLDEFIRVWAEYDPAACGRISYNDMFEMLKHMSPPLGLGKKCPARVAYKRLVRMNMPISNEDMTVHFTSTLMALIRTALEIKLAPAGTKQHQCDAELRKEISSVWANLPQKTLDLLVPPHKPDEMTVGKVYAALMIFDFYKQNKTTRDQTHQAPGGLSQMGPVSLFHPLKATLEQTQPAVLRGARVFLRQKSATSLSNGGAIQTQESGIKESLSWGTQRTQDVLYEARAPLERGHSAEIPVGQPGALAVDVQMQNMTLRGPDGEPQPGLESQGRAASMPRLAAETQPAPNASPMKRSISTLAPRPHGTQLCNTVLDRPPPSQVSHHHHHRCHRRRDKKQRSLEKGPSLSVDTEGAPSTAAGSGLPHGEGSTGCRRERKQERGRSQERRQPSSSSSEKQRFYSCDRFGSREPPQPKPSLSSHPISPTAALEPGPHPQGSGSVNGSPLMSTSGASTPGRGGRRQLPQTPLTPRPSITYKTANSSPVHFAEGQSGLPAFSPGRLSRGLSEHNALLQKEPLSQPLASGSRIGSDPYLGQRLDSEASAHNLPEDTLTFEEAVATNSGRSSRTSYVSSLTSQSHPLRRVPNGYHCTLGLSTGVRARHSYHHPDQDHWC
Description: as §2

β1 (h) = β1 (h) (Homo sapiens, UniProt P08588); assay: Abuse liability binding screen, β1 (h) (agonist radioligand)
Chain of β1 (h) (P08588 whole entry): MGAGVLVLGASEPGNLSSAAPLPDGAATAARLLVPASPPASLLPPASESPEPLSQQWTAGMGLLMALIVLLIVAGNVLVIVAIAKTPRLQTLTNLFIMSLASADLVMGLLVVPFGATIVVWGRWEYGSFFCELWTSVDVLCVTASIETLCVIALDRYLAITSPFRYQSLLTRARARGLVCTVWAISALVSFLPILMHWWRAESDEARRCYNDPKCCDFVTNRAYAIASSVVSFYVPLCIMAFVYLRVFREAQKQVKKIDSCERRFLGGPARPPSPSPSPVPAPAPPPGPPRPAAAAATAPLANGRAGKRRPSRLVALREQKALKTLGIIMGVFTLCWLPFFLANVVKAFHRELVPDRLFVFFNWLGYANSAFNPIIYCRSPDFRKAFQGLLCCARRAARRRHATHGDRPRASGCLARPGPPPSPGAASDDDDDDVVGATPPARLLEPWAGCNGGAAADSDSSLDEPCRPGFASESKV
Description: as §1, §2, §3

ER (non-selective) (h) = assay: Abuse liability binding screen, ER (non-selective) (h) (agonist radioligand); set-up: species or system human
Description: as §2

Chain of B2 (h) (P07550 whole entry): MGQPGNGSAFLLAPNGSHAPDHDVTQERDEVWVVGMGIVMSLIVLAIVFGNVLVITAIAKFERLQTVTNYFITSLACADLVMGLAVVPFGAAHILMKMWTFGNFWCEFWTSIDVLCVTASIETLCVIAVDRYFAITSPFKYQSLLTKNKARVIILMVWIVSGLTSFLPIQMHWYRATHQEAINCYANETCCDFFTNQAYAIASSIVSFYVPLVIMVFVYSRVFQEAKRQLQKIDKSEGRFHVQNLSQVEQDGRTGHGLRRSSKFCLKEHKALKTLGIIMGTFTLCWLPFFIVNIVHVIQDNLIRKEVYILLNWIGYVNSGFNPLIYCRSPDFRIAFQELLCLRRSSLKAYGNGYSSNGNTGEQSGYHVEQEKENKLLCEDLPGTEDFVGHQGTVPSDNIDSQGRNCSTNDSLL

O=C(O)[C@H]1O[C@@H](Oc2ccc3c4c2O[C@H]2[C@@H](O)CC[C@@]5(O)[C@@H](C3)N(CC3CCC3)CC[C@]425)[C@H](O)[C@@H](O)[C@@H]1O [Compound M5, nalbuphine-3-beta-D-glucuronid]
% Inhibition of Control Specific Binding 1st (B2 (h)): −4.6%
% Inhibition of Control Specific Binding 2nd (B2 (h)): 15.3%
% Inhibition of Control Specific Binding Mean (B2 (h)): 5.4%
% Inhibition of Control Specific Binding 1st [1]: −11.4%
% Inhibition of Control Specific Binding 2nd [1]: 3.2%
% Inhibition of Control Specific Binding Mean [1]: −4.1%
% Inhibition of Control Specific Binding 1st (M2 (h)): −11.1%
% Inhibition of Control Specific Binding 2nd (M2 (h)): 7.6%
% Inhibition of Control Specific Binding Mean (M2 (h)): −1.8%
% Inhibition of Control Specific Binding 1st (5-HT1A (h)): −7.0%
% Inhibition of Control Specific Binding 2nd (5-HT1A (h)): 3.4%
% Inhibition of Control Specific Binding Mean (5-HT1A (h)): −1.8%
% Inhibition of Control Specific Binding 1st (M4 (h)): −7.9%
% Inhibition of Control Specific Binding 2nd (M4 (h)): 16.6%
% Inhibition of Control Specific Binding Mean (M4 (h)): 4.4%
% Inhibition of Control Specific Binding 1st (Ca^2+ channel (N)): −10.9%
% Inhibition of Control Specific Binding 2nd (Ca^2+ channel (N)): 2.5%
% Inhibition of Control Specific Binding Mean (Ca^2+ channel (N)): −4.2%
% Inhibition of Control Specific Binding 1st (β1 (h)): −5.4%
% Inhibition of Control Specific Binding 2nd (β1 (h)): 4.8%
% Inhibition of Control Specific Binding Mean (β1 (h)): −0.3%
% Inhibition of Control Specific Binding 1st (ER (non-selective) (h)): 9.0%
% Inhibition of Control Specific Binding 2nd (ER (non-selective) (h)): 10.6%
% Inhibition of Control Specific Binding Mean (ER (non-selective) (h)): 9.8%
